Source: patent publication US20050014182A1, “Use of calpain for identifying compounds that modulate pain” (Aventis Pharma Deutschland GmbH, priority 2003, published 2005)
“Also recorded” adds a separate entry of the source. Where two headings read alike, the source gives them in different places. Where a SMILES comes first, the peptide text is derived from it. The star is where a group is joined. Cbz = O=C(OCc1ccccc1)*

Key:
[1] = tested on: calpain; conditions: described in literature, cited from earlier work
[2] = tested on: zymosan induced paw oedema; experiment: Zymosan induced paw inflammation model (paw oedema); assay type: in vivo, rat; conditions: for paw oedema (AUC of paw volume increase 0-8 h) versus control: 25 mg/kg i.p., 1.25 mg zymosan intraplantar, 25 mg/kg
Experimental: Unilateral hind paw inflammation and paw oedema was induced by subcutaneous injection of 1.25 mg zymosan (Sigma, München, Germany), suspended in 100 μl phosphate buffered saline (12.5 mg/ml), into the midplantar region of the right hind paw. After 24, 48 or 96 h animals were anaesthetized and killed by cardiac puncture. Spinal cords were excised, directly frozen in liquid nitrogen and then kept at −80° C. until further analysis. Paw oedema was induced by zymosan injection as described above. The paw volume was measured before and 0.25, 0.5, 1, 2, 4, 6, 8 and 24 h after zymosan injection using a plethysmometer (Ugo Basile, Varese, Italy). Six rats per group were used. At each time point five measurements of the paw volume were taken. The average of these five measurements was used for further analysis. […] Six animals were used for each treatment group. (Controls received 1 ml of vehicle.) Treatments were randomly allocated to animals and the observers were unaware of treatment allocations. The percent relative difference in paw withdrawal latency (ΔPWL) between the zymosan treated right and the untreated left hind paw, calculated as: ΔPWL=(right−left)/left×100, was used to asses antinociceptive effects. To evaluate anti-inflammatory effects, the relative difference between the paw volume before and after zymosan injection (ΔPV) was used. The areas under the ΔPWL versus time curves (AUCΔPWL) as well as the areas under the ΔPV versus time curves (AUCΔPV) were calculated using the linear trapezoidal rule. Statistical evaluation was done by SPSS 9.02 for Windows. Effects of study medications were assessed by submitting the AUCΔPV from 0-8 h to univariate analysis of variance (ANOVA) with subsequent t-tests employing a Bonferroni […]-correction for multiple comparisons. Statistical significance of ΔPWL was calculated by unpaired Student's t-test (zymosan-treated rats versus control rats). □ was set at 0.05.

[3] = tested on: calpain; experiment: Calpain activity of spinal cord extracts of zymosan treated rats (fluorometric cleavage of Ac-LLY-AFC); assay type: in vivo, rat
Experimental: (§1) Unilateral hind paw inflammation and paw oedema was induced by subcutaneous injection of 1.25 mg zymosan (Sigma, München, Germany), suspended in 100 μl phosphate buffered saline (12.5 mg/ml), into the midplantar region of the right hind paw. After 24, 48 or 96 h animals were anaesthetized and killed by cardiac puncture. Spinal cords were excised, directly frozen in liquid nitrogen and then kept at −80° C. until further analysis.
(§2) Calpain inhibitor III (MDL 28170) (Calbiochem, Schwalbach/Ts., Germany) was dissolved in PEG 400/DMSO (1:1) at a concentration of 10 mg/ml. Animals received calpain inhibitor III either as a 12.5 mg/kg or a 25 mg/kg intraperitoneal (i.p.) bolus injection 20 min prior to the intraplantar injection of zymosan. Six animals were used for each treatment group. (Controls received 1 ml of vehicle.) Treatments were randomly allocated to animals and the observers were unaware of treatment allocations.

[4] = tested on: m-calpain; experiment: Calpain protein expression in spinal cord after zymosan treatment (anti-m-calpain immunohistochemistry); assay type: in vivo, rat; conditions: 96 h after zymosan, pre-treatment with inhibitor
Experimental: as §1, §2
For immunohistochemical staining, the lumbal spinal cord segments were excised, directly frozen in liquid nitrogen and stored at −80° C. Fresh-frozen tissue sections (14 μm) were cut in a cryostat, mounted on gelatin-subbed slides, and fixed for 10 min in 4% paraformaldehyd in PBS (pH 7.4). Slides were washed with three 10-min washes in PBS and treated for 15 min with PBS containing 0.1% Triton-X 100. […]

[5] = tested on: zymosan induced thermal hyperalgesia; experiment: Zymosan induced thermal hyperalgesia (paw withdrawal latency, Hargreaves); assay type: in vivo, rat; conditions: for thermal hyperalgesia (paw withdrawal latency): rats, 25 mg/kg i.p., 1.25 mg zymosan intraplantar, 25 mg/kg
Experimental: Unilateral hind paw inflammation and paw oedema was induced by subcutaneous injection of 1.25 mg zymosan (Sigma, München, Germany), suspended in 100 μl phosphate buffered saline (12.5 mg/ml), into the midplantar region of the right hind paw. After 24, 48 or 96 h animals were anaesthetized and killed by cardiac puncture. Spinal cords were excised, directly frozen in liquid nitrogen and then kept at −80° C. until further analysis. Nociceptive paw withdrawal latency to radial heat was assessed according to Hargreaves (Hargreaves et al., 1988), using a commercially available special device (Ugo Basile, Varese, Italy). Rats were placed in transparent plastic chambers (18×29×12.5 cm) on a metal grid (5×5 mm). The heat source consisting of a high projector lamp bulb was focused on the mid-plantar surface of the hind paw. The bulb and an electronic timer were simultaneously activated at the test start, and both were automatically inactivated when a photocell detected a paw withdrawal in response to the heat. Paw withdrawal latencies (PWL) of the right and left paw (treated and untreated paw) were recorded before and every 60 min up to 8 h and 24 h after zymosan injection. […] Six animals were used for each treatment group. (Controls received 1 ml of vehicle.) Treatments were randomly allocated to animals and the observers were unaware of treatment allocations. The percent relative difference in paw withdrawal latency (ΔPWL) between the zymosan treated right and the untreated left hind paw, calculated as: ΔPWL=(right−left)/left×100, was used to asses antinociceptive effects. […] The areas under the ΔPWL versus time curves (AUCΔPWL) as well as the areas under the ΔPV versus time curves (AUCΔPV) were calculated using the linear trapezoidal rule. […] Effects of study medications were assessed by submitting the AUCΔPV from 0-8 h to univariate analysis of variance (ANOVA) with subsequent t-tests employing a Bonferroni […]-correction for multiple comparisons. Statistical significance of ΔPWL was calculated by unpaired Student's t-test (zymosan-treated rats versus control rats). □ was set at 0.05.

[6] = tested on: neurofilament light chain (NF-L); experiment: Neurofilament light chain (NF-L) degradation in spinal cord after zymosan treatment (immunohistochemistry); assay type: in vivo, rat; conditions: for NF-L immunofluorescence in spinal cord slices: 96 h after zymosan, pre-treatment with inhibitor; for zymosan induced neurofilament degradation: rats, 12.5 mg/kg and 25 mg/kg i.p.
Experimental: as §1, §2
For immunohistochemical staining, the lumbal spinal cord segments were excised, directly frozen in liquid nitrogen and stored at −80° C. Fresh-frozen tissue sections (14 μm) were cut in a cryostat, mounted on gelatin-subbed slides, and fixed for 10 min in 4% paraformaldehyd in PBS (pH 7.4). Slides were washed with three 10-min washes in PBS and treated for 15 min with PBS containing 0.1% Triton-X 100. The sections were then blocked in 3% BSA in PBS for 1 h to reduce nonspecific binding and then incubated with pimary monoclonal antibody, anti-NFL (1:100; Sigma) and anti-m-calpain (1:50; Affinity BioReagents) for 1 h at 37° C. NF-L and m-calpain were flourescently labelled with a 1 h incubation at 37° C. with Cy3-conjugated secondary antibody (1:600; Sigma). Slides were washed with three 10-min washes in PBS after each incubation. Primary and secondary antibody incubations were performed in PBS containing 1% BSA. Slides were mounted with SlowFade Light Antifade mounting media according to manufacturer's protocol.
Immunohistochemistry was applied to determine the protein levels of neurofilament-L and calpain in rat spinal cord slices after zymosan treatment with and without additional administration of calpain inhibitor III.

[7] = following systemic administration; cited from earlier work
[8] = tested on: calpain; experiment: Calpain inhibition (statement, no method given); assay type: biochemical; conditions: statement without data
[9] = listed as Calpain inhibitor III
[10] = tested as described for calpain inhibitor III

Row | SMILES | calpain inhibition (calpain I and II) [1] | calpain inhibition (calpain I and II) ([1]; listed as MDL 28170) | paw oedema (AUC of paw volume increase 0-8 h) versus control ([2]; rats) | paw oedema (AUC of paw volume increase 0-8 h) versus control ([2]; rats, listed as Calpain inhibitor III) | paw inflammation (paw volume increase) ([2]; rats, doses of 12.5 and 25 mg/kg i.p.) | zymosan-induced protease (calpain) activation in the spinal cord ([3]; rats, 25 mg/kg i.p. 20 min prior to zymosan) | calpain activity of spinal cord extracts ([3]; zymosan treated rats, calpain inhibitor III 12.5 mg/kg or 25 mg/kg i.p. before zymosan (FIG. 2 legend)) | calpain (m-calpain) protein expression in spinal cord [4] | calpain (m-calpain) protein expression in spinal cord ([4]; listed as MDL-28170) | thermal hyperalgesia (paw withdrawal latency) [5] | thermal hyperalgesia (paw withdrawal latency) [5, 9] | NF-L immunofluorescence in spinal cord slices [6] | NF-L immunofluorescence in spinal cord slices [6, 9] | zymosan induced neurofilament degradation [6] | zymosan induced neurofilament degradation ([6]; listed as MDL 28170) | blood-brain barrier penetration [7] | effects on inflammation [2, 10] | effects on nociception [5, 10] | calpain inhibition [8]
1 | CC(C)[C@H](NC(=O)OCc1ccccc1)C(=O)N[C@H](C=O)Cc1ccccc1 [calpain inhibitor III, Carbobenzoxy-valinyl-phenylalaninal] (Cbz-Val-Phe-aldehyde) | potent, selective and cell-permeable inhibitor of calpain 1 and II | potent, specific calpain inhibitor | significantly reduced the paw edema; also recorded: statistically significant differences | significantly reduces the paw oedema | inhibited paw inflammation dose-dependently; also recorded: attenuates the development of zymosan induced paw inflammation | significantly inhibited | reduced | not altered | not affected | antinociceptive responses; also recorded: significantly higher paw withdrawal latency; also recorded: attenuates | significantly reduces thermal hyperalgesia | immunofluorescence levels comparable to control slices of untreated rats | reduced the loss of NF-L | attenuated the zymosan induced neurofilament degradation | blocked the degradation of neurofilament protein | rapidly penetrates the blood-brain barrier |  |  | 
2 | CC(C)[C@H](NC(=O)OCc1ccccc1)C(=O)N[C@H](C=O)Cc1ccccc1 [MDL-102935] (Cbz-Val-Phe-aldehyde) |  |  |  |  |  |  |  |  |  |  |  |  |  |  |  |  | the same as those of MDL-28170 | the same as those of MDL-28170 | inhibitor of calpain
3 | COc1ccc2c(c1)c(CC(=O)O)c(C)n2C(=O)c1ccc(Cl)cc1 [indomethacin] | calpain inhibiting activity |  |  |  |  |  |  |  |  |  |  |  |  |  |  |  |  |  | 
